Measured values from US20200029563A1, “NOVEL 5-SUBSTITUTED IMIDAZOLYLMETHYLDIOXOLANE DERIVATIVES” (Bayer CropScience Aktiengesellschaft, priority 2016, published 2020).

experiment: Log P by HPLC on reversed phase columns (EEC directive 79/831 Annex V.A8); type: physicochemical; settings: Table 1; method [a]: LC-UV, acidic range, 0.1% formic acid in water and acetonitrile as eluent
Protocol: Measurement of Log P values was performed according to EEC directive 79/831 Annex V.A8 by HPLC (High Performance Liquid Chromatography) on reversed phase columns with the following methods: • ^[a] Log P value is determined by measurement of LC-UV, in an acidic range, with 0.1% formic acid in water and acetonitrile as eluent (linear gradient from 10% acetonitrile to 95% acetonitrile). • ^[b] Log P value is determined by measurement of LC-UV, in a neutral range, with 0.001 molar ammonium acetate solution in water and acetonitrile as eluent (linear gradient from 10% acetonitrile to 95% acetonitrile). • ^[c] Log P value is determined by measurement of LC-UV, in an acidic range, with 0.1% phosphoric acid and acetonitrile as eluent (linear gradient from 10% acetonitrile to 95% acetonitrile).
If more than one Log P value is available within the same method, all the values are given and separated by “+”.
Calibration was done with straight-chain alkan-2-ones (with 3 to 16 carbon atoms) with known Log P values (measurement of Log P values using retention times with linear interpolation between successive alkanones).

SMILES	LogP	chromatographic logP
FC(F)(F)c1cc(Oc2ccc(Cl)cc2)ccc1C1(Cn2cncc2Br)OCCO1 [Compound I-27]	3.58 ^[a]	–
Clc1cc(Oc2ccc(Br)cc2)ccc1C1(Cn2cncc2Cl)OCCO1 [Compound I-07]	3.53^[a]	–
FC(F)(F)c1cc(Oc2ccc(Cl)nc2)ccc1C1(Cn2cncc2Cl)OCCO1 [Compound I-05]	2.58^[a]	–
Clc1cc(Oc2ccc(Br)cc2)ccc1C1(Cn2cncc2Br)OCCO1 [Compound I-21]	3.48^[a]	–
CC1COC(Cn2cncc2Br)(c2ccc(Oc3ccc(C(F)(F)F)cc3)cc2Cl)O1 (racemic) [Compound I-31]	3.85 ^[a]	–
Clc1ccc(Oc2ccc(C3(Cn4cncc4Cl)OCCO3)c(Cl)c2)cn1 [Compound I-13]	2.42^[a]	–
C#Cc1cncn1CC1(c2ccc(Oc3ccc(Cl)cc3)cc2C(F)(F)F)OCCO1 [Compound I-28]	3.13 ^[a]	–
C#Cc1cncn1CC1(c2ccc(Oc3ccc(C(F)(F)F)cc3)cc2Cl)OCCO1 [Compound I-30, 1-[(2-{2-chloro-4-[4-(trifluoromethyl)phenoxy]phenyl}-1,3-dioxolan-2-yl)methyl]-5-ethynyl-1H-imidazole]	–	3.04
N#Cc1cncn1CC1(c2ccc(Oc3ccc(Cl)cc3)cc2C(F)(F)F)OCCO1 [Compound I-35]	4.03 ^[a]	–
Fc1cncn1CC1(c2ccc(Oc3ccc(Br)cc3)nc2C(F)(F)F)OCCO1 [Compound I-16]	2.78^[a]	–
Fc1cncn1CC1(c2ccc(Oc3ccc(Cl)cc3)cc2C(F)(F)F)OCCO1 [Compound I-15]	3.06^[a]	–
Fc1nc(Oc2ccc(Cl)cc2)ccc1C1(Cn2cncc2F)OCCO1 [Compound I-17]	2.34^[a]	–
C#Cc1cncn1CC1(c2ccc(Oc3ccc(Cl)cc3)cc2Cl)OCCO1 [Compound I-22]	2.94^[a]	–
Fc1cncn1CC1(c2ccc(Oc3ccc(Cl)cc3)cc2Cl)OCCO1 [Compound I-11]	2.88^[a]	–
C[Si](C)(C)C#Cc1ccc(Oc2ccc(C3(Cn4cncc4Br)OCCO3)c(Cl)c2)cc1 [Compound I-24]	4.98 ^[a]	–
FC(F)(F)c1cc(Oc2ccc(Br)cc2)ccc1C1(Cn2cncc2Cl)OCCO1 [Compound I-06]	3.77^[a]	–
N#Cc1cncn1CC1(c2ccc(Oc3ccc(Cl)cc3)cc2Cl)OCCO1 [Compound I-33]	3.78 ^[a]	–
Clc1cc(Oc2ccc(I)cc2)ccc1C1(Cn2cncc2Cl)OCCO1 [Compound I-03]	3.82^[a]	–
FC(F)(F)c1cncn1CC1(c2ccc(Oc3ccc(Cl)cc3)cc2Cl)OCCO1 [Compound I-10]	4.64^[a]	–
N#Cc1cncn1CC1(c2ccc(Oc3ccc(C(F)(F)F)cc3)cc2Cl)OCCO1 [Compound I-34]	3.92 ^[a]	–
Clc1ccc(Oc2ccc(C3(Cn4cncc4Cl)OCCO3)c(Cl)c2)nc1 [Compound I-14]	2.66^[a]	–
Clc1cc(Oc2ccc(I)cc2)ccc1C1(Cn2cncc2Br)OCCO1 [Compound I-08]	3.76^[a]	–
Fc1cncn1CC1(c2ccc(Oc3ccc(Br)nc3)nc2C(F)(F)F)OCCO1 [Compound I-20]	2.17^[a]	–
C#Cc1cncn1CC1(c2ccc(Oc3ccc(Cl)cc3)cc2Cl)OCC(C)O1 (racemic) [Compound I-26]	3.15 ^[a]	–
FC(F)(F)c1ccc(Oc2ccc(C3(Cn4cncc4Br)OCCO3)c(Cl)c2)cc1 [Compound I-29]	3.44 ^[a]	–
CC1COC(Cn2cncc2Br)(c2ccc(Oc3ccc(Cl)cc3)cc2Cl)O1 (racemic) [Compound I-23]	3.68^[a]	–
C#Cc1ccc(Oc2ccc(C3(Cn4cncc4C#C)OCCO3)c(Cl)c2)cc1 [Compound I-25]	2.76 ^[a]	–
CC1COC(Cn2cncc2Cl)(c2ccc(Oc3ccc(Cl)cc3)cc2Cl)O1 (mixture of isomers) [Compound I-09]	3.64^[a]	–

same assay, conditions: Table 2 (I-RP compounds); method [a]: LC-UV, acidic range, 0.1% formic acid in water and acetonitrile as eluent

SMILES	chromatographic logP	LogP
C[Si](C)(C)C#Cc1cncn1CC1(c2ccc(Oc3ccc(C(F)(F)F)cc3)cc2Cl)OCCO1 [I-RP-05, 1-[(2-{2-chloro-4-[4-(trifluoromethyl)phenoxy]phenyl}-1,3-dioxolan-2-yl)methyl]-5-[(trimethylsilyl)ethynyl]-1H-imidazole]	4.59	–
C[Si](C)(C)C#Cc1cncn1CC1(c2ccc(Oc3ccc(Cl)cc3)cc2C(F)(F)F)OCCO1 [I-RP-04]	–	4.67 ^[a]
C[Si](C)(C)C#Cc1cncn1CC1(c2ccc(Oc3ccc(Cl)cc3)cc2Cl)OCCO1 [I-RP-01]	–	4.54 ^[a]
C[Si](C)(C)C#Cc1ccc(Oc2ccc(C3(Cn4cncc4C#C[Si](C)(C)C)OCCO3)c(Cl)c2)cc1 [I-RP-02]	–	6.17 ^[a]
CC1COC(Cn2cncc2C#C[Si](C)(C)C)(c2ccc(Oc3ccc(Cl)cc3)cc2Cl)O1 (racemic) [I-RP-03]	–	4.90 ^[a]

same assay, conditions: reversed phase HPLC columns; Table 1; method [a]: LC-UV, acidic range, 0.1% formic acid in water and acetonitrile as eluent

SMILES	chromatographic logP
Clc1ccc(Oc2ccc(C3(Cn4cncc4Br)OCCO3)c(Cl)c2)cc1 [Compound I-02, 5-bromo-1-[[2-[2-chloro-4-(4-chlorophenoxy)phenyl]-1,3-dioxolan-2-yl]methyl]imidazole]	3.35
FC(F)(F)c1cc(Oc2ccc(Cl)cc2)ccc1C1(Cn2cncc2Cl)OCCO1 [Compound I-04, 5-chloro-1-[[2-[4-(4-chlorophenoxy)-2-(trifluoromethyl)phenyl]-1,3-dioxolan-2-yl]methyl]imidazole]	3.75
Fc1cncn1CC1(c2ccc(Oc3ccc(Cl)cc3)nc2C(F)(F)F)OCCO1 [Compound I-18, 6-(4-chlorophenoxy)-3-[2-[(5-fluoroimidazol-1-yl)methyl]-1,3-dioxolan-2-yl]-2-(trifluoromethyl)pyridine]	2.42
CC1COC(Cn2cncc2F)(c2ccc(Oc3ccc(Cl)cc3)cc2Cl)O1 (stereo not shown) [Compound I-12, 1-[[2-[2-chloro-4-(4-chlorophenoxy)phenyl]-4-methyl-1,3-dioxolan-2-yl]methyl]-5-fluoro-imidazole]	3.06
Fc1cncn1CC1(c2ccc(Oc3ccc(C(F)(F)F)nc3)nc2C(F)(F)F)OCCO1 [Compound I-19, 3-[2-[(5-fluoroimidazol-1-yl)methyl]-1,3-dioxolan-2-yl]-2-(trifluoromethyl)-6-[[6-(trifluoromethyl)-3-pyridyl]oxy]pyridine]	2.53
Clc1ccc(Oc2ccc(C3(Cn4cncc4Cl)OCCO3)c(Cl)c2)cc1 [Compound I-01, 5-chloro-1-[[2-[2-chloro-4-(4-chlorophenoxy)phenyl]-1,3-dioxolan-2-yl]methyl]imidazole]	3.29
CC1COC(Cn2cncc2C#N)(c2ccc(Oc3ccc(C(F)(F)F)cc3)cc2Cl)O1 (stereo not shown) [Compound I-32, 1-{[2-{2-chloro-4-[4-(trifluoromethyl)phenoxy]phenyl}-4-methyl-1,3-dioxolan-2-yl]methyl}-1H-imidazole-5-carbonitrile]	4.08
